Assay results: US10064858B2, “Methods and compositions for treating bacterial infections with iron chelators” (THE UNITED STATES OF AMERICA, AS REPRESENTED BY THE …, priority 2011, dated 2018)
Read-outs that look alike come from different tables or passages of the source.

How the values were obtained:
Format in all cases: cell-based
P. aeruginosa = assay: MIC, CLSI microdilution (Tables 1 and 6); details: Pseudomonas aeruginosa, Table 1, read-out: MIC of Iron Chelators
Method in brief: (§1)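 Broth microdilution per CLSI in cation-adjusted Mueller-Hinton broth against standard MDR strains and clinical isolates of ESKAPE pathogens. MIC taken as lowest inhibitory concentration of iron chelator; triplicate determinations.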

K. pneumonia = assay: MIC, CLSI microdilution (Tables 1 and 6); details: Klebsiella pneumoniae, Table 1, read-out: MIC of Iron Chelators
Method in brief: as §1

Acinetobacter baumannii = assay: MIC, CLSI microdilution (Tables 1 and 6)
Method in brief: as §1

[1] = system: A. baumannii AB 19606, AB 17978; assay: Checkerboard assay, chelator with antibiotic (FIC)
Text: Drug interactions were initially evaluated with the “checkerboard” microdilution design, which provided a matrix of all drug combinations assayed in terms of fractions of the previously determined MIC. The checkerboard microdilution design is described in R. J. Tallarida, “Drug Synergism: Its Detection and Applications,” Journal of Pharmacology and Experimental Therapeutics, 865-872 (2001); and in R. L. White, et al., (1996), supra. FIGS. 39A and 39B show the wellplates having different concentrations of iron chelator and antibiotic, as labeled along the x-axis and y-axis. […] The checkerboard assay was used to asses other combinations of iron chelators and antibiotics. The fractional inhibitory concentration index (FIC), which was calculated as follows: FIC=(MIC A in combination/MIC A)+(MIC B in combination/MIC B). […] Blank spaces indicate concentrations not tested. […] Against the species PA PAO1 and PA 27853, all the antibiotics except for Ami.

[2] = system: clinical isolates of A. baumannii; assay: MIC for clinical isolates in CAMHB media (Table 3); details: Acinetobacter baumannii
Description: Individual MICs were determined following the microdilution method recommended by CLSI in cationic-adjusted Mueller-Hinton Broth (CAMHB), or M9 media. […] Tests were performed in triplicate. MIC of iron chelators were determined for noscomial ESKAPE pathogens.

[3] = system: clinical isolates of A. baumannii; assay: MIC for clinical isolates in RPMI (low iron) media (Table 4); set-up: key to MIC of Iron Chelators: NG = no growth in table 4; details: for MIC: Acinetobacter baumannii
Description: […] […] Tests were performed in triplicate. MIC of iron chelators were determined for noscomial ESKAPE pathogens.
For a number of strains, the iron chelators produced no growth of bacteria (NG).

[4] = AB3638, read-out: MIC of Iron Chelators
[5] = AB3785, read-out: MIC of Iron Chelators
[6] = AB3806, read-out: MIC of Iron Chelators
[7] = AB3917, read-out: MIC of Iron Chelators
[8] = AB4025, read-out: MIC of Iron Chelators
[9] = AB4026, read-out: MIC of Iron Chelators
[10] = AB4027, read-out: MIC of Iron Chelators
[11] = AB4052, read-out: MIC of Iron Chelators
[12] = AB4269, read-out: MIC of Iron Chelators
[13] = AB4448, read-out: MIC of Iron Chelators
[14] = AB4456, read-out: MIC of Iron Chelators
[15] = AB4490, read-out: MIC of Iron Chelators
[16] = AB4498, read-out: MIC of Iron Chelators
[17] = AB4795, read-out: MIC of Iron Chelators
[18] = AB4857, read-out: MIC of Iron Chelators
[19] = AB4878, read-out: MIC of Iron Chelators
[20] = AB4932, read-out: MIC of Iron Chelators
[21] = AB4957, read-out: MIC of Iron Chelators
[22] = AB4991, read-out: MIC of Iron Chelators
[23] = AB5001, read-out: MIC of Iron Chelators
[24] = AB5075, read-out: MIC of Iron Chelators
[25] = AB5197, read-out: MIC of Iron Chelators
[26] = AB5256, read-out: MIC of Iron Chelators
[27] = AB5674, read-out: MIC of Iron Chelators
[28] = AB5711, read-out: MIC of Iron Chelators

OCCN1CCN(Cc2ccc(O)c3ncccc23)CC1 [VK28, 5-(4-(2-hydroxyethyl)piperazin-1-ylmethyl)-8-hydroxyquinoline]
MIC (P. aeruginosa; ATCC27853, ATCC 27853): > 500 µg/mL | MIC (P. aeruginosa; PAO1): > 500 µg/mL | MIC (K. pneumonia; ATCC700603, ATCC 700603): > 500 µg/mL | MIC (K. pneumonia; BAA2146, BAA-2146): > 500 µg/mL | MIC (Acinetobacter baumannii; ATCC17978, ATCC 17978, Table 1, read-out: MIC of Iron Chelators): 125 µg/mL | MIC (Acinetobacter baumannii; ATCC19606, ATCC 19606, Table 1, read-out: MIC of Iron Chelators): 125 µg/mL | FIC ([1]; AB 17978, in combination with Amikacin): 1.25 | FIC ([1]; AB 17978, in combination with Cefotaxine): 0.75 | FIC ([1]; AB 17978, in combination with Colisitin (Colistin)): 0.75 | FIC ([1]; AB 17978, in combination with Doxycycline): 1.25 | FIC ([1]; AB 17978, in combination with Rifampin): 0.75 | FIC ([1]; AB 19606, in combination with Amikacin): 1.25 | FIC ([1]; AB 19606, in combination with Cefotaxine): 1.25 | FIC ([1]; AB 19606, in combination with Colisitin (Colistin)): 0.75 | FIC ([1]; AB 19606, in combination with Doxycycline): 2.25 | FIC ([1]; AB 19606, in combination with Rifampin): 1.25 | MIC ([2]; AB967, read-out: MIC of Iron Chelators): 250 µg/mL | MIC ([2]; AB2828, read-out: MIC of Iron Chelators): 250 µg/mL | MIC ([2]; AB3340, read-out: MIC of Iron Chelators): 250 µg/mL | MIC ([2]; AB3560, read-out: MIC of Iron Chelators): 250 µg/mL | MIC [2, 4]: 250 µg/mL | MIC [2, 5]: 250 µg/mL | MIC [2, 6]: 500 µg/mL | MIC [2, 7]: 500 µg/mL | MIC ([2]; AB3927, read-out: MIC of Iron Chelators): 250 µg/mL | MIC [2, 8]: 250 µg/mL | MIC [2, 9]: 250 µg/mL | MIC [2, 10]: 250 µg/mL | MIC [2, 11]: 500 µg/mL | MIC [2, 12]: 250 µg/mL | MIC [2, 13]: 250 µg/mL | MIC [2, 14]: 250 µg/mL | MIC [2, 15]: 250 µg/mL | MIC [2, 16]: 500 µg/mL | MIC [2, 17]: 250 µg/mL | MIC [2, 18]: 500 µg/mL | MIC [2, 19]: 500 µg/mL | MIC [2, 20]: 500 µg/mL | MIC [2, 21]: 500 µg/mL | MIC [2, 22]: 250 µg/mL | MIC [2, 23]: 250 µg/mL | MIC [2, 24]: 250 µg/mL | MIC [2, 25]: 250 µg/mL | MIC [2, 26]: 250 µg/mL | MIC [2, 27]: 250 µg/mL | MIC [2, 28]: 250 µg/mL | MIC of Iron Chelators ([3]; AB967): NG | MIC of Iron Chelators ([3]; AB2828): NG | MIC of Iron Chelators ([3]; AB3340): NG | MIC of Iron Chelators ([3]; AB3560): NG | MIC of Iron Chelators ([3]; AB3927): NG | MIC [3, 4]: 8 µg/mL | MIC [3, 5]: 8 µg/mL | MIC [3, 6]: 8 µg/mL | MIC [3, 7]: 4 µg/mL | MIC [3, 8]: 8 µg/mL | MIC [3, 9]: 8 µg/mL | MIC [3, 10]: 8 µg/mL | MIC [3, 11]: 8 µg/mL | MIC [3, 12]: 8 µg/mL | MIC [3, 13]: 8 µg/mL | MIC [3, 14]: 8 µg/mL | MIC [3, 15]: 8 µg/mL | MIC [3, 16]: 8 µg/mL | MIC [3, 17]: 4 µg/mL | MIC [3, 18]: 8 µg/mL | MIC [3, 19]: 8 µg/mL | MIC [3, 20]: 8 µg/mL | MIC [3, 21]: 8 µg/mL | MIC [3, 22]: 8 µg/mL | MIC [3, 23]: 8 µg/mL | MIC [3, 24]: 8 µg/mL | MIC [3, 25]: 4 µg/mL | MIC [3, 26]: 8 µg/mL | MIC [3, 27]: 8 µg/mL | MIC [3, 28]: 8 µg/mL
